Laboratory results reported in patent publication US10941157B2, “Pesticidal compositions and uses thereof” (Gilead Apollo, LLC, priority 2015, dated 2021).
Converted amounts (≈) assume the structure as drawn. Where two headings read alike, the source gives them in different places.

Experiments:
Assay type in all cases: cell-based
[1] = system: Botrtyis cinerea (Bc); assay: In vitro pathogen growth inhibition assay, Bc; conditions: 48 h
In short: (§1)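 Spores in 17% V8 liquid medium, or 1.5 mm Rs mycelial plugs in ¼ PDB, incubated with compound; final concentration checked by OD600 for precipitation. OD readings at 24 and 48 h, blank-subtracted, plus visual ratings; value is concentration giving ≥90% growth inhibition.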

[2] = system: Collectotrichum graminicola (Cg); assay: In vitro pathogen growth inhibition assay, Cg; conditions: 48 h
In short: as §1

[3] = system: Diplodia maydis (Dm); assay: In vitro pathogen growth inhibition assay, Dm; conditions: Stenocarpella maydis, 48 h
In short: (§2)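 Value reported is the compound concentration reaching ≥90% growth inhibition, from OD readings at 24 and 48 h after blank subtraction, confirmed visually. Inoculum was spores diluted in 17% V8 medium, except Rs, using 1.5 mm mycelial plugs in ¼ PDB; actual compound concentration corrected via OD600.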

[4] = system: Fusarium moniliforme (Fm); assay: In vitro pathogen growth inhibition assay, Fm; conditions: Fusarium verticillioides
In short: as §1

[5] = system: Fusarium virguliforme (Fv); assay: In vitro pathogen growth inhibition assay, Fv
In short: as §2

[6] = system: Phytophthora capsici (Pc); assay: In vitro pathogen growth inhibition assay, Pc; conditions: 48 h
In short: as §2

[7] = system: Rhizoctonia solani (Rs); assay: In vitro pathogen growth inhibition assay, Rs (mycelial plugs); conditions: Rhizoctonia solani, 48 h, mycelial plugs
In short: as §2

[8] = system: Septoria tritici (St); assay: In vitro pathogen growth inhibition assay, St; conditions: Zymoseptoria tritici, 48 h
In short: as §1

[9] = ≥90% inhibition, 48 hours vs 2% DMSO control, read-out: Compound Concentration (ppm) sufficient for ≥90% inhibition of growth, Bc
[10] = ≥90% inhibition, 48 hours vs 2% DMSO control, read-out: Compound Concentration (ppm) sufficient for ≥90% inhibition of growth, Cg
[11] = ≥90% inhibition, 48 hours vs 2% DMSO control, read-out: Compound Concentration (ppm) sufficient for ≥90% inhibition of growth, Dm
[12] = ≥90% inhibition, 48 hours vs 2% DMSO control, read-out: Compound Concentration (ppm) sufficient for ≥90% inhibition of growth, Fm
[13] = ≥90% inhibition, 48 hours vs 2% DMSO control, read-out: Compound Concentration (ppm) sufficient for ≥90% inhibition of growth, Fv
[14] = ≥90% inhibition, 48 hours vs 2% DMSO control, read-out: Compound Concentration (ppm) sufficient for ≥90% inhibition of growth, Pc
[15] = ≥90% inhibition, 48 hours vs 2% DMSO control, read-out: Compound Concentration (ppm) sufficient for ≥90% inhibition of growth, Rs
[16] = ≥90% inhibition, 48 hours vs 2% DMSO control, read-out: Compound Concentration (ppm) sufficient for ≥90% inhibition of growth, St
[17] = ≥90% growth inhibition, 48 hours, vs 2% DMSO control, read-out: Compound Concentration (ppm) sufficient for ≥90% inhibition of Bc
[18] = ≥90% growth inhibition, 48 hours, vs 2% DMSO control, read-out: Compound Concentration (ppm) sufficient for ≥90% inhibition of Cg
[19] = ≥90% growth inhibition, 48 hours, vs 2% DMSO control, read-out: Compound Concentration (ppm) sufficient for ≥90% inhibition of Dm
[20] = ≥90% growth inhibition, 48 hours, vs 2% DMSO control, read-out: Compound Concentration (ppm) sufficient for ≥90% inhibition of Fm
[21] = ≥90% growth inhibition, 48 hours, vs 2% DMSO control, read-out: Compound Concentration (ppm) sufficient for ≥90% inhibition of Fv
[22] = ≥90% growth inhibition, 48 hours, vs 2% DMSO control, read-out: Compound Concentration (ppm) sufficient for ≥90% inhibition of Pc
[23] = ≥90% growth inhibition, 48 hours, vs 2% DMSO control, read-out: Compound Concentration (ppm) sufficient for ≥90% inhibition of Rs
[24] = ≥90% growth inhibition, 48 hours, vs 2% DMSO control, read-out: Compound Concentration (ppm) sufficient for ≥90% inhibition of St

| Structure (SMILES) | IC90 [1, 9] [µg/mL] | IC90 [2, 10] [µg/mL] | IC90 [3, 11] [µg/mL] | IC90 [4, 12] [µg/mL] | IC90 [5, 13] [µg/mL] | IC90 [6, 14] [µg/mL] | IC90 [7, 15] [µg/mL] | IC90 [8, 16] [µg/mL] | IC90 [1, 17] [µg/mL] | IC90 [2, 18] [µg/mL] | IC90 [3, 19] [µg/mL] | IC90 [4, 20] [µg/mL] | IC90 [5, 21] [µg/mL] | IC90 [6, 22] [µg/mL] | IC90 [7, 23] [µg/mL] | IC90 [8, 24] [µg/mL] |
| --- | --- | --- | --- | --- | --- | --- | --- | --- | --- | --- | --- | --- | --- | --- | --- | --- |
| Cc1c(-n2nccn2)sc2c1c(=O)n(C(C)(C)C(=O)NC(C)C)c(=O)n2C[C@H](OC(C)C)c1cc(F)ccc1OCCO [Compound I-071] | 0.4 (≈ 0.649 µM) | 0.4 (≈ 0.649 µM) | 0.4 (≈ 0.649 µM) | 0.08 (≈ 0.13 µM) | 0.4 (≈ 0.649 µM) | ≥ 50 | ≥ 0.08 | ≥ 50 | – | – | – | – | – | – | – | – |
| COc1ccccc1[C@H](Cn1c(=O)n(C(C)(C)C(=O)NC2CCCCC2)c(=O)c2c(C)c(-n3nccn3)sc21)OC1CCOCC1 [Compound I-043] | 0.4 (≈ 0.615 µM) | > 2 | 0.4 (≈ 0.615 µM) | 0.08 (≈ 0.123 µM) | 2 (≈ 3.07 µM) | > 10 | 0.4 (≈ 0.615 µM) | > 10 | – | – | – | – | – | – | – | – |
| COc1ccc(F)cc1[C@H](Cn1c(=O)n(C(C)(C)C(=O)NC(C)C)c(=O)c2c(C)c(-n3nccn3)sc21)OCC(C)C [Compound I-026] | 0.4 (≈ 0.666 µM) | 0.08 (≈ 0.133 µM) | 0.08 (≈ 0.133 µM) | 0.08 (≈ 0.133 µM) | 0.4 (≈ 0.666 µM) | > 50 | 0.4 (≈ 0.666 µM) | ≥ 2 | – | – | – | – | – | – | – | – |
| COc1ccc(F)cc1[C@H](Cn1c(=O)n(C(C)(C)C(=O)NC(C)C)c(=O)c2c(C)c(CO)sc21)OCCC#N [Compound I-325] | – | – | – | – | – | – | – | – | 50 (≈ 89.2 µM) | > 50 | > 50 | 2 (≈ 3.57 µM) | 50 (≈ 89.2 µM) | > 50 | > 50 | > 50 |
| CCNC(=O)[C@H](C)n1c(=O)c2c(C)c(C(=O)OCC)sc2n(C[C@H](OCCC#N)c2cc(F)ccc2OC)c1=O [Compound I-305] | – | – | – | – | – | – | – | – | 0.4 (≈ 0.696 µM) | 2 (≈ 3.48 µM) | 2 (≈ 3.48 µM) | 0.08 (≈ 0.139 µM) | 0.4 (≈ 0.696 µM) | > 50 | 0.4 (≈ 0.696 µM) | > 50 |
| COc1ccccc1[C@H](Cn1c(=O)n([C@H](C)C(=O)N(C)C(C)C)c(=O)c2c(C)c(-n3nccn3)sc21)OCCC#N [Compound I-238] | – | – | – | – | – | – | – | – | 2 (≈ 3.45 µM) | 10 (≈ 17.3 µM) | 10 (≈ 17.3 µM) | 2 (≈ 3.45 µM) | 10 (≈ 17.3 µM) | > 50 | 10 (≈ 17.3 µM) | > 50 |
| CCO[C@@H](Cn1c(=O)n(C(C)(C)C(=O)N2CCCC2)c(=O)c2c(C)c(-n3nccn3)sc21)c1cc(F)ccc1OC [Compound I-055] | 0.4 (≈ 0.684 µM) | 0.08 (≈ 0.137 µM) | ≥ 0.4 | 0.08 (≈ 0.137 µM) | ≥ 0.08 | > 50 | 0.4 (≈ 0.684 µM) | ≥ 2 | – | – | – | – | – | – | – | – |
| CCOC(=O)c1sc2c(c1C)c(=O)n(C(C)(C)C(=O)N1CCCC1)c(=O)n2C[C@H](OCCO)c1cc(F)ccc1OC [Compound I-178] | – | – | – | – | – | – | – | – | 2 (≈ 3.3 µM) | ≥ 0.4 | 2 (≈ 3.3 µM) | 0.4 (≈ 0.66 µM) | 2 (≈ 3.3 µM) | > 50 | 0.4 (≈ 0.66 µM) | ≥ 50 |
| COc1ccc(F)cc1[C@H](Cn1c(=O)n(C(C)(C)C(=O)NCC#N)c(=O)c2c(C)c(-n3nccn3)sc21)OC(C)C [Compound I-160] | 2 (≈ 3.43 µM) | ≥ 10 | 10 (≈ 17.1 µM) | 2 (≈ 3.43 µM) | 2 (≈ 3.43 µM) | > 50 | ≥ 50 | > 50 | – | – | – | – | – | – | – | – |
| COc1ccc(F)cc1[C@H](Cn1c(=O)n([C@@H](C)C(=O)NC2CCC2)c(=O)c2c(C)c(-n3nccn3)sc21)OCCO [Compound I-091] | 0.4 (≈ 0.682 µM) | ≥ 2 | 2 (≈ 3.41 µM) | 0.08 (≈ 0.136 µM) | 0.4 (≈ 0.682 µM) | > 50 | 2 (≈ 3.41 µM) | > 50 | – | – | – | – | – | – | – | – |
| COc1ccc(F)cc1[C@H](Cn1c(=O)n(C(C)(C)C(=O)NC(C)C)c(=O)c2c(C)c(-n3cccn3)sc21)OCCO [Compound I-129] | 2 (≈ 3.4 µM) | 2 (≈ 3.4 µM) | 10 (≈ 17 µM) | 0.4 (≈ 0.681 µM) | 2 (≈ 3.4 µM) | 50 (≈ 85.1 µM) | 2 (≈ 3.4 µM) | > 50 | – | – | – | – | – | – | – | – |
